Assay results taken from US11484032B2, “Compositions for inhibition of insect sensing” (Vanderbilt University, priority 2011, dated 2022).

Tests used:
AgORco = biological target: T1, AgORco (Anopheles gambiae, UniProt Q7QCC7); test: Single-channel recording, outside-out patches from AgORco-expressing HEK293 cells; assay type: biochemical
T1 construct: expressed in transfected cells
T1 sequence (Q7QCC7 1-478): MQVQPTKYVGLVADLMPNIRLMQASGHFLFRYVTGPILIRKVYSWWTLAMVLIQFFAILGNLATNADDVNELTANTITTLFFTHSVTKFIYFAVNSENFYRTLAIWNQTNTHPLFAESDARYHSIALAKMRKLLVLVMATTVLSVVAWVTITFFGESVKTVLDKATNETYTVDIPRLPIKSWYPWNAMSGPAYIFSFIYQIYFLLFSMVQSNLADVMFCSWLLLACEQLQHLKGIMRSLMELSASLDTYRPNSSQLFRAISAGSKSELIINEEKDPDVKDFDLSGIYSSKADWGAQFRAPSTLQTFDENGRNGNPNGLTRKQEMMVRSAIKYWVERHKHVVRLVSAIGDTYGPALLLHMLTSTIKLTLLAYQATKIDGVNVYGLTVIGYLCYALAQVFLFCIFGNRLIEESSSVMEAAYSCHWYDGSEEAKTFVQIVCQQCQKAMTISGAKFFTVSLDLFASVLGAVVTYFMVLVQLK
Protocol: Currents from OR-expressing HEK293 cells were amplified with an Axopatch 200b Amplifier (Axon Instruments) and digitized through a Digidata 1322A (Axon Instruments). Electrophysiological data was recorded and analyzed using pCLAMP 10 (Axon Instruments). Electrodes were fabricated from quartz tubing (Sutter Instruments) and pulled to 4-6 MiΩ for whole cell recording. Electrodes were filled with internal solution (120 mM KCl, 30 mM D-glucose, 10 mM HEPES, 2 mM MgCl2, 1.1 mM EGTA, and 0.1 CaCl2) (pH 7.35, 280 mOsm). External (bath) solution contained 130 mM NaCl, 34 mM D-glucose, 10 mM HEPES, 1.5 mM CaCl2), 1.3 mM KH2PO4, and 0.5 MgSO4 (pH 7.35, 300 mOsm). Compounds were diluted in external solution and locally perfused to the recording cell using Perfusion Pencil (Automate Scientific) and controlled by a ValveLink 8.2 controller (Automate Scientific). Whole cell recordings were sampled at 10 kHz and filtered at 5 kHz. Outside-out patches were obtained using 10-15MΩ electrodes pulled from standard glass capillaries (World Precision Instruments) and fire-polished with an MF-830 micro forge (Narishige). Single channel recordings were sampled at 20 kHz. Recordings were reduced to 1 kHz and low-pass filtered at 500 Hz for display and analysis using QuB (SUNY at Buffalo). […]

[1] = tested on: AgORco-expressing CpB/C neurons; test: Single sensillum recording, capitate peg sensilla, CpB/C neurons; assay type: in vivo, Anopheles gambiae; details: compound delivered via glass recording electrode
Protocol: Single sensillum recordings were performed on 4-7 day old, non-bloodfed Anopheles gambiae females maintained on 10% sucrose and a 12/12 light dark cycle. Legs, wings and antennae were removed from cold-anesthetized females that were then restrained on double-stick tape with thread. A glass reference electrode filled with Sensillar lymph ringers (SLR)(Xu, 2005) was placed in the eye and the recording electrode filled with DMSO or VUAA1 diluted in SLR was used to puncture sensilla at their base. Responses were recorded and digitized using a Syntech IDAC-4 and analyzed with AutoSpike software (Syntech). New glass recording pipettes were used for every recording. Data was sampled at 12 kHz.
The inventors next performed single unit, extracellular electrophysiological recordings on adult female An. gambiae to determine whether VUAA1 could activate AgORco-expressing odorant receptor neurons (ORNs) in vivo. ORNs, which express AgORco and a conventional OR are enclosed within the hair-like sensilla present on olfactory tissues. […] CpA is clearly distinguished from CpB/C by its large action potential amplitude. The action potential amplitudes of CpB and CpC are much smaller and in some preparations indistinguishable from each other; as a result, the spike activity of CpB and CpC neurons were binned for data analysis. […]

CCc1ccc(NC(=O)CSc2nnc(-c3cccnc3)n2CC)cc1 [VUAA1, 2-((4-ethyl-5-(pyridin-3-yl)-4H-1,2,4-triazol-3-yl)thio)-N-(4-ethylphenyl)acetamide]
average unitary current of AgORco (AgORco; VUAA1-evoked, mean±st. dev.): 1.3±0.3 pA | channel opening probability P0 (AgORco; during 5 s application of −4.0 log M VUAA1, patch held at −60 mV): 0.38 | spike frequency of CpB/C neurons [1]: increased the spike frequency of CpB/C neurons in a dose-dependent manner
